Measured values taken from US20220226499A1, “Metabolite Delivery for Modulating Metabolic Pathways of Cells” (Arizona Board of Regents on Behalf of Arizona State …, priority 2019, published 2022).

What was measured:
DCs [1] = test: DC activation and cytokine expression by flow cytometry; type: cell-based, C57BL/6j mice; conditions: for CD86 expression in CD11c+ cells: equivalent amount as PaKG MPs, vs no treatment control and PaKG MP condition
Experimental: Briefly, femur and tibia from mice were isolated and kept in wash media composed of DMEM/F-12 (1:1) with L-glutamine, 10% fetal bovine and 1% penicillin-streptomycin. The ends of the bones were cut, and bone marrow was flushed out with 10 mL wash media and mixed to make a homogeneous suspension. Red blood cells were lysed by incubating and resuspending the pellet in 3 mL 1× red blood cell (RBC) lysis buffer for 3 minutes at 4° C. The cell suspension was then washed twice with wash media and re-suspended in DMEM/F-12 with L-glutamine, 10% fetal bovine serum, 1% sodium pyruvate, 1% non-essential amino acids (VWR, Radnor, Pa.), 1% penicillin-streptomycin and 20 ng/ml GM-CSF (DC media). All % values shown here are vol/vol. This cell suspension was then seeded in a tissue culture-treated T-75 flask (day 0). After 48 hours (day 2), floating cells were collected, centrifuged, re-suspended in fresh media and seeded on low attachment plates for 6 additional days. Half of the media was changed every alternate day. At the end of 6 days (day 8), cells were lifted from the low attachment wells by gentle pipetting, re-suspended and seeded on tissue culture-treated polystyrene plates for 2 more days before treating them. […] Purity, yield, and immaturity of DCs (CD11c, MHC-II and CD86) were verified via immunofluorescence staining and flow cytometry. Dendritic cells were isolated from at least 3 separate mice for each experiment.

DCs [2] = test: Seahorse Assay (ECAR and OCR)
Experimental: Lipopolysaccharide (LPS) was used as a positive control, and no treatment was used as a negative control.
Sequential injections were performed with D-glucose (10 mM), oligomycin (1 mM), and 2-deoxyglucose (100 mmol/L). The extracellular acidification rates (ECAR) after the injection of D-glucose was a measure of glycolysis, and the ECAR after the injection of oligomycin represented maximal glycolytic capacity. Non-glycolytic activity was quantified by the measure of ECAR after the injection of 2-deoxyglucose. Samples were analyzed with 10 technical replicates.
For oxidative phosphorylation, 24 hours after cell seeding, media was changed to unbuffered DMEM containing 2 mM glutamine, 1 mM pyruvate, and 10 mM glucose. […] The oxygen consumption rate (OCR) after the injection of oligomycin was a measure of ATP-linked respiration and the OCR after the injection of FCCP represented maximal respiratory capacity. Basal respiration was quantified by the measure of OCR prior to the injection of oligomycin. Samples were analyzed with 10 technical replicates.

Compound | CD86 expression in CD11c+ cells (DCs [1]) | frequency of MHC-II+CD86+ in DCs (DCs [1]; vs untreated immature DCs) | glycolysis levels compared to PaKG MPs (DCs [2]; DCs) | glycolysis (DCs [2]; vs no treatment control (PaKG MPs also vs LPS))
OCCCCCCCCCCO [1,10-decanediol] | did not significantly change | – | – | –
Lipopolysaccharide [LPS] | – | significantly upregulated | – | –
O=C(O)CCC(=O)C(=O)O [soluble aKG, alpha-ketoglutarate] | did not significantly change | – | higher | decreased
